According to patent US20110150959A1, “WIPE WITH ODOUR CONTROL SUBSTANCE” (SCA Hygiene Products AB, priority 2008, published 2011):

Tests used:
[1] = Peroxide value, AOCS Official Method Cd 8-53; assay type: physicochemical; settings: Trial 2 lipids after ozonization; lipids used for treatment of wipes
Procedure: The degree of oxidation was tested by determining the peroxide value according to the test method AOCS Official Method Cd 8-53 Surplus 2003. The peroxide value for both the starting oils/fats and the ozonized oils/fats was determined.

[2] = Odour reduction by lipid-treated fluff pulp, headspace SPME-GC/MS; settings: pulp with 30% by weight lipid; 1000 ng/ml odour substance; 3 h + 0.5 h at 35° C.; vs untreated pulp
Procedure: Sheets of sulfate pulp from Weyerhaeuser Inc., with the designation NB416, were impregnated with a solution of the tested oil/fat in hexane. To a pulp sheet weighing 10 g was added a solution of 4.29 g oil in 4.29 g hexane. The solution was evenly distributed over the surface of the sheets. When the hexane had evaporated the sheets contained 30% by weight oil/fat and 70% by weight pulp fibers. The treated sheets were defibrated in a Braun multimixer MX32 to produce fluff pulp.
1 g of treated pulp was put in a 60 ml vial, after which 3.9 ml of 0.01 M phosphate buffered saline solution pH 7.4 from Sigma was added. Then 0.1 ml PEG300 with DMS (dimethyl sulfide), DMDS (dimethyl disulfide) and IVA (isovaleric aldehyde) was added so that the concentration of each odour substance in the final solution was 1000 ng/ml.
After 3 h at 35° C. a SPME fiber (Supelco), 75 μm Carboxen-PDMS, was injected into the headspace above the pulp and after an additional 0.5 h the SPME fiber was analyzed with gas chromatography (GC), Thermo Finnigan Trace, with a MS detector. The peak area of each odour substance was determined for samples with treated pulp and the untreated reference pulp. The GC settings were:
Temperature program for GC: 30° C. (7 min), 3° C./min-70° C. (0 min), 40° C./min-250° C. (7 min). Column: ZB-624 (Zebron), 30 m, 0.25 mm i.d. 1.40 μm film thickness Inlet temperature: 250° C. Transfer line: 220° C.
MS: SIM (single ion monitoring). When DMS, IVA and DMDS were analyzed the following mass numbers were detected: 45, 46, 47, 57, 58, 61, 62, 79, 86 and 94.
The odour reduction was determined by comparing the peak area of the tested sample with the same peak area achieved when testing the untreated reference pulp. The calculation of the odour reduction in percent was made by the equation:
Odour reduction=100×(1−Actual peak area/Peak area of sample with untreated pulp)
These ozonized lipids were tested for their odour reducing effect on treated pulp in the same manner as under Trial 1 above. The only exception in the laboratory procedure was the method for treatment of the pulp with Acolectin.

[3] = Odour reduction by lipid-treated spunlaced nonwoven wipes, headspace SPME-GC/MS; settings: 1 g spunlaced nonwoven treated with 2 g lipid; 1000 ng/ml odour compound
Procedure: A spunlaced nonwoven with the trade name Fibrella 7160, available from Suominen (Finland) was used in these experiments. This material, which consists of about 60% polypropylene fibres and 40% rayon fibres, has a basis weight of about 50 g/m^2. Pieces with a weight of 1 g and an area of 0.020 m^2 were cut from the spunlaced nonwoven sheet. These pieces were then treated with lipids. 2 g of the lipid was dissolved in 4 g of either hexane or acetone and evenly distributed on the piece of nonwoven. Acetone was used to dissolve all ozonated oils and oleic acid while the other not ozonated oils where dissolved in hexane. After several hours, when the solvent had evaporated, the nonwoven pieces were folded and inserted into 60 ml vials, used for SPME analysis. The vials were then flushed with nitrogen gas and sealed.
Vials with a volume of 60 ml containing 1 g spunlaced nonwoven treated with 2 g lipid were used in these tests. The laboratory procedure was the same as earlier described when evaluating the odour reduction of fluffed pulp, see page 10-11. To each vial was added 3.9 ml phosphate buffered saline solution, pH 7.4 and 0.1 ml PEG300 with DMS, DMDS and IVA. The total concentration of each odour compound was 1000 ng/ml.

[4] = autoxidation at 100° C., fatty acids not treated with antioxidants; cited from earlier work

Row | SMILES | Peroxide value [1] [meqv./kg] | Reduction of odour substances in %, DMDS [2] [%] | Reduction of odour substances in %, DMS [2] [%] | Reduction of odour substances in %, IVA [2] [%] | Reduction of odour substances in %, DMDS [3] [%] | Reduction of odour substances in %, DMS [3] [%] | Reduction of odour substances in %, IVA [3] [%] | Relative rate of oxidation [4]
1 | CCCCCCCC/C=C\CCCCCCCC(=O)O [Oleic acid, oleic acid] | 3.1 | 19.2 | 67.5 | 9.3 | 83.6 | 67.4 | 74.5 | 6
2 | CCCCCCCCCCCCCCCCCC(=O)O [Stearic acid] |  |  |  |  |  |  |  | 0.6
3 | CCCCC/C=C\C/C=C\CCCCCCCC(=O)O [Linoleic acid] |  |  |  |  |  |  |  | 64
4 | CCCCC/C=C\C/C=C\CCCCCCCC(=O)OCC [Ethyl linoleate, ethyl linoleate] |  | 0 | 0 | 0 |  |  |  | 
